Assay in all cases: ≥ marks a high value that may be exact or a test limit, other limits are often not marked, values filed in µg/mL are converted to µM
For test [1], the system named is Rhodococcus rhodochrous X15.
The test system of test [2] is Candida albicans ATCC 2002.
Test [3] has as its system Enterococcus faecium 091299.
Test [4] deals with Bacillus licheniformis X39.
Test [5] relates to Escherichia coli ATCC 25922.
Test [6] concerns Enterococcus faecalis 981.
Test [7] relates to Staphylococcus carnosus KHS.
For test [8], the system named is Psychrobacter faecalis X29.
Test [9] deals with Staphylococcus aureus ATCC 25923.
In test [10] the test system is Staphylococcus aureus USA 300.
Test [11] concerns Klebsiella pneumoniae NCTC 13368.
In test [12] the test system is Pseudomonas aeruginosa NCTC 13437.
Test [13] deals with Klebsiella pneumoniae M6.
The subject of test [14] is Acinetobacter baumannii AYE.
Test [15] concerns Escherichia coli LEC001.
The test system of test [16] is Pseudomonas aeruginosa PAO1.
In test [17] the test system is Staphylococcus aureus ATCC 9144.
For test [18], the system named is Staphylococcus aureus NCTC 13616.
For test [19], the system named is Escherichia coli ATCC 25726.
The test system of test [20] is Escherichia coli NCTC 12923.
The subject of test [21] is Acinetobacter baumannii ATCC 17978.
Test [22] concerns Candida albicans ATCC 90028.
The subject of test [23] is Listeria monocytogenes KCTC 3710.
The subject of test [24] is Pseudomonas aeruginosa 3320.
The test system of test [25] is Staphylococcus aureus ATCC 29213.
Test [26] relates to Escherichia coli B.
The test system of test [27] is Candida albicans F7-39/IDE99.
The test system of test [28] is Staphylococcus aureus.
Test [29] deals with Bacillus subtilis 168.
Test [30] relates to Pseudomonas aeruginosa ATCC 15692.
Test [31] concerns Staphylococcus aureus 547582.
Test [32] has as its system Pseudomonas aeruginosa ATCC 27853.
For test [33], the system named is Stenotrophomonas maltophilia.
Test [34] deals with Pseudomonas aeruginosa PAO239.
The test system of test [35] is Acinetobacter baumannii I NM8.
For test [36], the system named is Fusobacterium nucleatum NCTC 10562.
The test system of test [37] is Streptococcus mutans ATCC 10449.
The subject of test [38] is Candida albicans NCTC 3179.
Test [39] relates to Enterococcus faecalis NCTC 12697.
For test [40], the system named is Klebsiella pneumoniae ATCC 700603.
The test system of test [41] is Streptococcus sanguinis NY101.
Test [42] has as its system Streptococcus mitis ATCC 903.
Test [43] relates to Streptococcus gordonii Challis DL1.
Test [44] relates to Streptococcus mutans.
Test [45] concerns Veillonella atypica PK1910.
Test [46] relates to Lacticaseibacillus casei ATCC 4646.

Converted amounts (≈) assume the structure as drawn. “And” between values parts separate entries of the source, which are not always exact repeats. Identical values can stand only once.

The term MIC denotes the lowest concentration found to suppress growth. A higher MIC goes with a need for much substance. In the case of `CC[C@H](C)[C@H](NC(=O)[C@H](CC(C)C)NC(=O)[C@@H]1CCCN1C(=O)[C@H](CC(C)C)NC(=O)[C@@H](N)Cc1ccccc1)C(=O)N[C@@H](C)C(=O)N[C@@H](CO)C(=O)N[C@@H](CC(C)C)C(=O)N[C@@H](C)C(=O)N[C@@H](C)C(=O)N[C@@H](CC(N)=O)C(=O)N[C@@H](Cc1ccccc1)C(=O)N[C@H](C(=O)N1CCC[C@H]1C(=O)N[C@@H](CCCCN)C(=O)N[C@H](C(=O)N[C@@H](Cc1ccccc1)C(=O)N[C@H]1CSSC[C@@H](C(=O)O)NC(=O)[C@H](CCCCN)NC(=O)[C@H](CCCCN)NC(=O)[C@H]([C@@H](C)O)NC(=O)[C@H]([C@@H](C)CC)NC(=O)[C@H](CCCCN)NC1=O)[C@@H](C)CC)C(C)C` [FLPLIASLAANFVPKIFCKITKKC], the MIC came to 1.2 µM (≈ 3.2 µg/mL) in [1]; 2.4 µM (≈ 6.39 µg/mL) in test [2]; 19 µM (≈ 50.6 µg/mL) in [3]; 2.4 µM (≈ 6.39 µg/mL) in [4]; 150 µM (≈ 400 µg/mL) in test [5]; 19 µM (≈ 50.6 µg/mL) in test [6]. Further, the minimum inhibitory concentration (MIC) in [7] came to 4.8 µM (≈ 12.8 µg/mL); in [8], 4.8 µM (≈ 12.8 µg/mL); in test [9], 1.2 µM (≈ 3.2 µg/mL).

In the case of `CSCC[C@H](NC(=O)[C@H](CCSC)NC(=O)[C@H](CCCCN)NC(=O)CNC(=O)[C@@H](NC(=O)[C@@H](NC(=O)[C@H](CCCCN)NC(=O)[C@H](CC(C)C)NC(=O)CNC(=O)[C@H](Cc1ccccc1)NC(=O)[C@H](CCCCN)NC(=O)[C@H](Cc1ccccc1)NC(=O)[C@H](C)NC(=O)[C@H](CCCCN)NC(=O)CNC(=O)[C@H](CC(C)C)NC(=O)[C@H](CC(C)C)NC(=O)[C@H](CO)NC(=O)CNC(=O)[C@H](CC(C)C)NC(=O)CN)[C@@H](C)O)C(C)C)C(=O)NCC(=O)NCC(=O)N[C@@H](C)C(=O)N1CCC[C@H]1C(=O)N[C@@H](CCCN=C(N)N)C(=O)N[C@@H](CCC(=O)O)C(=O)N[C@@H](CCC(N)=O)C(=O)O` [GLGSLLGKAFKFGLKTVGKMMGGAPREQ], the MIC is 2.78 µM (≈ 8 µg/mL) in [10]; 11.1 µM (≈ 32 µg/mL) in test [11]; ≥ 44.5 µM in test [12]; 5.56 µM (≈ 16 µg/mL) in test [13]; 1.39 µM (≈ 4 µg/mL) in test [14]; 2.78 µM (≈ 8 µg/mL) in test [15]. The MIC in test [16] is > 44.5 µM; in [17], 1.39 µM (≈ 4 µg/mL); in test [18], 1.39 µM (≈ 4 µg/mL); in [19], 3 µM (≈ 8.64 µg/mL); in [20], 2.78 µM (≈ 8 µg/mL); in test [21], 1.39 µM (≈ 4 µg/mL). Also, the MIC in [22] was determined as 25 µM (≈ 72 µg/mL); in [9], 6 µM (≈ 17.3 µg/mL).

With `CSCC[C@H](NC(=O)CNC(=O)[C@H](Cc1ccccc1)NC(=O)CN)C(=O)N[C@@H](C)C(=O)N[C@@H](CC(C)C)C(=O)N[C@@H](CCCCN)C(=O)N[C@@H](CC(C)C)C(=O)N[C@@H](CC(C)C)C(=O)N[C@@H](CCCCN)C(=O)N[C@@H](CCCCN)C(=O)N[C@H](C(=O)N[C@@H](CC(C)C)C(N)=O)C(C)C` [GFGMALKLLKKVL], the MIC in test [23] is 25 µM (≈ 35.4 µg/mL); in test [24] it was 8 µM (≈ 11.3 µg/mL); in test [25] it was 3.13 µM (≈ 4.43 µg/mL); in test [26], 3 µM (≈ 4.25 µg/mL); in test [27] it was 6.3 µM (≈ 8.93 µg/mL); in test [28], 3.7 µM and 4.43 µM. Also, the MIC in test [29] was determined as 1.3 µM (≈ 1.84 µg/mL); in [30], 6.25 µM (≈ 8.86 µg/mL); in [31], 8 µM (≈ 11.3 µg/mL); in [32] it was 6.25 µM (≈ 8.86 µg/mL); in [5] it was 6.25 µM (≈ 8.86 µg/mL); in [9], 3.13 µM (≈ 4.43 µg/mL).

Regarding `CC[C@H](C)[C@H](NC(=O)[C@H](CCCCN)NC(=O)[C@H](CC(C)C)NC(=O)[C@H](C)NC(=O)[C@H](CCCCN)NC(=O)CNC(=O)[C@H](CC(C)C)NC(=O)[C@@H](NC(=O)[C@H](CO)NC(=O)CNC(=O)[C@H](CC(C)C)NC(=O)CN)C(C)C)C(=O)NCC(=O)N[C@@H](C)C(=O)N[C@@H](CC(N)=O)C(=O)N[C@@H](CC(C)C)C(=O)N[C@@H](CC(C)C)C(N)=O` [GLGSVLGKALKIGANLL], the minimal inhibitory concentration (MIC) amounted to 4 µM (≈ 6.49 µg/mL) in test [33]; 25 µM (≈ 40.6 µg/mL) in test [34]; 6 µM (≈ 9.74 µg/mL) in [35]; 6.25 µM (≈ 10.1 µg/mL) in test [36]; 3.1 µM (≈ 5.03 µg/mL) in [37]; 25 µM (≈ 40.6 µg/mL) in test [32]. The MIC in [5] is 12.5 µM (≈ 20.3 µg/mL); in test [38], ≥ 50 µM; in test [39] it was ≥ 100 µM; in test [40] it was 25 µM (≈ 40.6 µg/mL); in test [9] it was 6 µM (≈ 9.74 µg/mL).

Turning to `CC(C)C[C@H](NC(=O)[C@H](CC(C)C)NC(=O)[C@H](Cc1cnc[nH]1)NC(=O)[C@H](Cc1cnc[nH]1)NC(=O)[C@H](CC(C)C)NC(=O)[C@H](CCCCN)NC(=O)[C@H](CCCCN)NC(=O)[C@H](CC(C)C)NC(=O)[C@H](CC(C)C)NC(=O)[C@H](CCCN=C(N)N)NC(=O)[C@H](CCCN=C(N)N)NC(=O)[C@H](Cc1c[nH]c2ccccc12)NC(=O)[C@@H](N)CCCN=C(N)N)C(=O)N[C@@H](Cc1cnc[nH]1)C(=O)NCC(=O)NCC(=O)NCC(=O)N[C@@H](Cc1ccccc1)C(=O)N[C@@H](CCCCN)C(=O)N[C@@H](CCCCN)C(=O)N[C@@H](Cc1ccccc1)C(=O)N[C@@H](Cc1c[nH]c2ccccc12)C(=O)N[C@@H](CCCCN)C(=O)N[C@@H](Cc1c[nH]c2ccccc12)C(=O)N[C@@H](Cc1ccccc1)C(=O)N[C@@H](CCCN=C(N)N)C(=O)N[C@@H](CCCN=C(N)N)C(=O)N[C@@H](Cc1ccccc1)C(N)=O` [RWRRLLKKLHHLLHGGGFKKFWKWFRRF], the MIC in test [41] came out at 4.28 µM (≈ 16 µg/mL); in test [42] it was 8.57 µM (≈ 32 µg/mL); in test [43] it was 4.28 µM (≈ 16 µg/mL); in test [44], 1.51 µM (≈ 5.66 µg/mL); in test [45], 2.14 µM (≈ 8 µg/mL); in test [46], 2.14 µM (≈ 8 µg/mL).

(Values after DBAASP.)
